Results reported in patent US7572786B2, “Substituted 1-piperidin-3-yl-4-piperidin-4-yl-piperazine derivatives and their use as neurokinin antagonists” (Janssen Pharmaceutica, N.V., priority 2002, dated 2009).

Tests used:
Assay type in all cases: cell-based
NK1 = NK1 (Homo sapiens, UniProt P25103); assay: Signal transduction (ST), intracellular Ca++ (FLIPR), NK1 antagonism; details: for IC50: read-out: pIC50 NK1 (converted)
Description: (§1) This test evaluates in vitro functional NK1 antagonistic activity. For the measurements of intracellular Ca^++ concentrations the cells were grown on 96-well (black wall/transparent bottom) plates from Costar for 2 days until they reached confluence. The cells were loaded with 2 μM Fluo3 in DMEM containing 0.1% BSA and 2.5 mM probenecid for 1 h at 37° C. […] The cells were preincubated with a concentration range of antagonists for 20 min at RT and Ca^++-signals after addition of the agonists were measured in a Fluorescence Image Plate Reader (FLIPR from Molecular Devices, Crawley, England). The peak of the Ca^++-transient was considered as the relevant signal and the mean values of corresponding wells were analysed as described below.
(§2) The sigmoidal dose response curves were analysed by computerised curve-fitting, using the GraphPad Program. […] For antagonist responses the IC50-value was calculated using non-linear regression.

NK2 = target: T1, NK2 (Homo sapiens, UniProt P21452); assay: Signal transduction (ST), intracellular Ca++ (FLIPR), NK2; details: for IC50: read-out: pIC50 NK2 (converted)
T1 sequence (P21452 1-398): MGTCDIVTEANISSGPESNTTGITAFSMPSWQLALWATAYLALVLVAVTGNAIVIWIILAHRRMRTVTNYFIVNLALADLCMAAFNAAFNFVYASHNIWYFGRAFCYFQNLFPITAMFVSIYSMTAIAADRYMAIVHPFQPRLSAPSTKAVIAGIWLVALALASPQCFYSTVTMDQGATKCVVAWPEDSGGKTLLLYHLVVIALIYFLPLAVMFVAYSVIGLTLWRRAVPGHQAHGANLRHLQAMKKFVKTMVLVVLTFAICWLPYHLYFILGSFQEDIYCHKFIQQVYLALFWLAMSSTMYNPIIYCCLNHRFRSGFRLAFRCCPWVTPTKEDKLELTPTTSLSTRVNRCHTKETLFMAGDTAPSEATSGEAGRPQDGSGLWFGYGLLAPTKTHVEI
Description: [The source words this procedure for another target and reports this target under the same test.] as §1, §2

NK3 = target: T2, NK3 (Homo sapiens, UniProt P29371); assay: Signal transduction (ST), intracellular Ca++ (FLIPR), NK3; details: for IC50: read-out: pIC50 NK3 (converted)
T2 sequence (P29371 1-465): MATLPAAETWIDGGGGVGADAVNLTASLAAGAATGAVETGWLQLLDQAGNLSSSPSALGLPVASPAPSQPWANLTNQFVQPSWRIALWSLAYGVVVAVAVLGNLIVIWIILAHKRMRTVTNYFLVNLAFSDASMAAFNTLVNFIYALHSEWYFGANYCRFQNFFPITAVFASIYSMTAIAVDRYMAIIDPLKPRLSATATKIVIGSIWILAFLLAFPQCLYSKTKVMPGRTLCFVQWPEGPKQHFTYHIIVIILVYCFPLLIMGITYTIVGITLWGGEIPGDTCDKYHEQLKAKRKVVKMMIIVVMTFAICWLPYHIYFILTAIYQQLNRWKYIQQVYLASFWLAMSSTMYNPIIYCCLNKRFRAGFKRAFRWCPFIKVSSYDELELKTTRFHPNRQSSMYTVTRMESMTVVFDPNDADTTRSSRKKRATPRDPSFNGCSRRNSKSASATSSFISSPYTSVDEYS
Description: [The source words this procedure for another target and reports this target under the same test.] as §1, §2

Sequence of NK1 (P25103 whole entry): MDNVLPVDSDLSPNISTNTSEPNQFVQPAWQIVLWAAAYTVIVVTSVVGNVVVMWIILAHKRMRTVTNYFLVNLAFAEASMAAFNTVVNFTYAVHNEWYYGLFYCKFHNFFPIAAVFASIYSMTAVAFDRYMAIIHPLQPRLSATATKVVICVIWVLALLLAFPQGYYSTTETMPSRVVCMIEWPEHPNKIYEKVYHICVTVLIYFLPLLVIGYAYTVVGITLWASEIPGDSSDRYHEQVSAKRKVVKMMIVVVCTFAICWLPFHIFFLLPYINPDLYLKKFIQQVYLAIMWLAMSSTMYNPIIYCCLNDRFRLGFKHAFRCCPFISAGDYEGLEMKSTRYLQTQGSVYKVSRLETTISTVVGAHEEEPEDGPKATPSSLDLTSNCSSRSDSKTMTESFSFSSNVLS

Row | Compound | IC50 (NK1) [nM] | IC50 (NK2) [nM] | IC50 (NK3) [nM] | pIC50 NK1 (NK1) | pIC50 NK2 (NK2) | pIC50 NK3 (NK3)
1 | O=C(c1ccccc1F)N1CCCC(N2CCN([C@H]3CCN(C(=O)c4cc(C(F)(F)F)cc(C(F)(F)F)c4)[C@H](Cc4ccccc4)C3)CC2)C1 (stereo partly drawn) [Compound 9] | 15.8 | 2510 | 794 |  |  | 
2 | O=C(c1ccccc1Cl)N1CCCC(N2CCN([C@H]3CCN(C(=O)c4cc(C(F)(F)F)cc(C(F)(F)F)c4)[C@H](Cc4ccccc4)C3)CC2)C1 (stereo partly drawn) [Compound 10] | 25.1 | 3980 | 501 |  |  | 
3 | Cc1ccccc1C(=O)N1CCCC(N2CCN([C@H]3CCN(C(=O)c4cc(C(F)(F)F)cc(C(F)(F)F)c4)[C@H](Cc4ccccc4)C3)CC2)C1 (stereo partly drawn) [Compound 11] | 20 | 3160 | 1000 |  |  | 
4 | O=C(C1CC1)N1CCCC(N2CCN([C@H]3CCN(C(=O)c4cc(C(F)(F)F)cc(C(F)(F)F)c4)[C@H](Cc4ccccc4)C3)CC2)C1 (stereo partly drawn) [Compound 15] | 12.6 | 6310 | 158 |  |  | 
5 | O=C(c1cccs1)N1CCCC(N2CCN([C@H]3CCN(C(=O)c4cc(C(F)(F)F)cc(C(F)(F)F)c4)[C@H](Cc4ccccc4)C3)CC2)C1 (stereo partly drawn) [Compound 20] | 31.6 | 2000 | 251 |  |  | 
6 | Cc1nnsc1C(=O)N1CCCC(N2CCN([C@H]3CCN(C(=O)c4cc(C(F)(F)F)cc(C(F)(F)F)c4)[C@H](Cc4ccccc4)C3)CC2)C1 (stereo partly drawn) [Compound 22] | 10 | 2510 | 501 |  |  | 
7 | O=C(c1cccnc1)N1CCCC(N2CCN([C@H]3CCN(C(=O)c4cc(C(F)(F)F)cc(C(F)(F)F)c4)[C@H](Cc4ccccc4)C3)CC2)C1 (stereo partly drawn) [Compound 23] | 20 | 3980 | 2000 |  |  | 
8 | O=C(c1cc(C(F)(F)F)cc(C(F)(F)F)c1)N1CC[C@H](N2CCN(C3CCCN(S(=O)(=O)c4cccs4)C3)CC2)C[C@H]1Cc1ccccc1 (stereo partly drawn) [Compound 25] |  |  |  | 7.8 | 6.4 | 7.1
9 | O=C(c1cc(C(F)(F)F)cc(C(F)(F)F)c1)N1CC[C@H](N2CCN(C3CCCN(c4cnccn4)C3)CC2)C[C@H]1Cc1ccccc1 (stereo partly drawn) [Compound 26] | 7.94 | 7940 | 794 |  |  | 
10 | O=C(c1cc(C(F)(F)F)cc(C(F)(F)F)c1)N1CC[C@H](N2CCN(C3CCCN(S(=O)(=O)c4ccccc4)C3)CC2)C[C@H]1Cc1ccccc1 (stereo partly drawn) [Compound 28] | 10 | 2000 | 158 |  |  | 
11 | O=C(c1cc(C(F)(F)F)cc(C(F)(F)F)c1)N1CC[C@H](N2CCN(C3CCCN(S(=O)(=O)c4ccsc4)C3)CC2)C[C@H]1Cc1ccccc1 (stereo partly drawn) [Compound 29] | 6.31 | 1260 | 316 |  |  | 
12 | Cc1ccccc1S(=O)(=O)N1CCCC(N2CCN([C@H]3CCN(C(=O)c4cc(C(F)(F)F)cc(C(F)(F)F)c4)[C@H](Cc4ccccc4)C3)CC2)C1 (stereo partly drawn) [Compound 30] | 15.8 | 631 | 631 |  |  | 
13 | Cc1nc(S(=O)(=O)N2CCCC(N3CCN([C@H]4CCN(C(=O)c5cc(C(F)(F)F)cc(C(F)(F)F)c5)[C@H](Cc5ccccc5)C4)CC3)C2)cn1C (stereo partly drawn) [Compound 32] | 5.01 | 631 | 100 |  |  | 
14 | O=C(c1cc(C(F)(F)F)cc(C(F)(F)F)c1)N1CC[C@H](N2CCN(C3CCCN(S(=O)(=O)c4ccc(Cl)s4)C3)CC2)C[C@H]1Cc1ccccc1 (stereo partly drawn) [Compound 36] |  |  |  | 7.5 | 5.3 | 6.2
15 | O=C(c1cc(C(F)(F)F)cc(C(F)(F)F)c1)N1CC[C@H](N2CCN(C3CCCN(S(=O)(=O)c4ccc(-c5cnco5)s4)C3)CC2)C[C@H]1Cc1ccccc1 (stereo partly drawn) [Compound 37] | 12.6 | 2000 | 631 |  |  | 
16 | Cc1nc(C)c(S(=O)(=O)N2CCCC(N3CCN([C@H]4CCN(C(=O)c5cc(C(F)(F)F)cc(C(F)(F)F)c5)[C@H](Cc5ccccc5)C4)CC3)C2)s1 (stereo partly drawn) [Compound 38] | 6.31 | 200 | 251 |  |  | 
17 | Cc1noc(C)c1S(=O)(=O)N1CCCC(N2CCN([C@H]3CCN(C(=O)c4cc(C(F)(F)F)cc(C(F)(F)F)c4)[C@H](Cc4ccccc4)C3)CC2)C1 (stereo partly drawn) [Compound 39] | 6.31 | 631 | 501 |  |  | 
18 | O=C(c1cc(C(F)(F)F)cc(C(F)(F)F)c1)N1CC[C@H](N2CCN(C3CCCN(S(=O)(=O)c4cc(Cl)sc4Cl)C3)CC2)C[C@H]1Cc1ccccc1 (stereo partly drawn) [Compound 40] |  |  |  | 7.6 | 5.1 | 6.6
19 | CC(C)(C)OC(=O)N1CCC[C@@H]1C(=O)N1CCCC(N2CCN([C@H]3CCN(C(=O)c4cc(C(F)(F)F)cc(C(F)(F)F)c4)[C@H](Cc4ccccc4)C3)CC2)C1 (stereo partly drawn) [Compound 53] |  |  |  | 8.3 | 5.7 | 7.3
20 | O=C(c1cc(C(F)(F)F)cc(C(F)(F)F)c1)N1CC[C@H](N2CCN(C3CCCN(S(=O)(=O)c4occc4COCc4ccccc4)C3)CC2)C[C@H]1Cc1ccccc1 (stereo partly drawn) [Compound 90] |  |  |  | 6.8 | 5.7 | 

Now from value to molecule, other results behind:

Row | IC50 (NK1) [nM] | IC50 (NK2) [nM] | IC50 (NK3) [nM] | Compound | pIC50 NK1 (NK1) | pIC50 NK2 (NK2) | pIC50 NK3 (NK3)
21 | 7.94 | 3160 | 100 | O=C(C1CCCC1)N1CCCC(N2CCN(C3CCN(C(=O)c4cc(C(F)(F)F)cc(C(F)(F)F)c4)C(Cc4ccccc4)C3)CC2)C1 (stereo not drawn) [Compound 41] |  |  | 
22 | 10 | 2000 | 501 | O=C(Cc1cccs1)N1CCCC(N2CCN([C@H]3CCN(C(=O)c4cc(C(F)(F)F)cc(C(F)(F)F)c4)[C@H](Cc4ccccc4)C3)CC2)C1 (stereo partly drawn) [Compound 43] |  |  | 
23 | 20 | 1580 | 398 | O=C(c1cc(C(F)(F)F)cc(C(F)(F)F)c1)N1CC[C@H](N2CCN(C3CCCN(S(=O)(=O)c4ccc5nonc5c4)C3)CC2)C[C@H]1Cc1ccccc1 (stereo partly drawn) [Compound 45] |  |  | 
24 | 15.8 | 501 | 794 | O=C(c1cc(C(F)(F)F)cc(C(F)(F)F)c1)N1CC[C@H](N2CCN(C3CCCN(S(=O)(=O)c4c(Cl)nc5sccn45)C3)CC2)C[C@H]1Cc1ccccc1 (stereo partly drawn) [Compound 46] |  |  | 
25 | 15.8 | 5010 | 501 | COc1ccccc1C(=O)N1CCCC(N2CCN([C@H]3CCN(C(=O)c4cc(C(F)(F)F)cc(C(F)(F)F)c4)[C@H](Cc4ccccc4)C3)CC2)C1 (stereo partly drawn) [Compound 47] |  |  | 
26 | 31.6 | 1000 | 631 | CC(C(=O)N1CCCC(N2CCN([C@H]3CCN(C(=O)c4cc(C(F)(F)F)cc(C(F)(F)F)c4)[C@H](Cc4ccccc4)C3)CC2)C1)c1ccccc1 (stereo partly drawn) [Compound 48] |  |  | 
27 | 15.8 | 631 | 316 | O=C(c1cc(C(F)(F)F)cc(C(F)(F)F)c1)N1CCC(N2CCN(C3CCCN(S(=O)(=O)Cc4ccccc4)C3)CC2)CC1Cc1ccccc1 (stereo not drawn) [Compound 49] |  |  | 
28 | 100 | 6310 | 7940 | O=C(c1cc(C(F)(F)F)cc(C(F)(F)F)c1)N1CC[C@H](N2CCN(C3CCCN(S(=O)(=O)c4ccccc4C(F)(F)F)C3)CC2)C[C@H]1Cc1ccccc1 (stereo partly drawn) [Compound 50] |  |  | 
29 | 5.01 | 2000 | 251 | CC(C)(C)OC(=O)N1CCCC1C(=O)N1CCCC(N2CCN(C3CCN(C(=O)c4cc(C(F)(F)F)cc(C(F)(F)F)c4)C(Cc4ccccc4)C3)CC2)C1 (stereo not drawn) [Compound 54] |  |  | 
30 | 251 | 2000 |  | O=C(c1cc(C(F)(F)F)cc(C(F)(F)F)c1)N1CC[C@H](N2CCN(C3CCCN(S(=O)(=O)c4ccc(COCc5ccccc5)cc4)C3)CC2)C[C@H]1Cc1ccccc1 (stereo partly drawn) [Compound 58] |  |  | 
31 | 10 | 6310 |  | CC(C)N/C(=C\[N+](=O)[O-])N1CCCC(N2CCN(C3CCN(C(=O)c4cc(C(F)(F)F)cc(C(F)(F)F)c4)C(Cc4ccccc4)C3)CC2)C1 (stereo not drawn) [Compound 103] |  |  | 
32 | 126 |  | 7940 | O=C(C1CC1)N1CCCC(N2CCCN([C@@H]3CCN(C(=O)c4cc(C(F)(F)F)cc(C(F)(F)F)c4)[C@H](Cc4ccccc4)C3)CC2)C1 (stereo partly drawn) [Compound 114] |  |  | 
33 | 63.1 |  | 2510 | O=C(c1ccccc1Cl)N1CCCC(N2CCCN([C@H]3CCN(C(=O)c4cc(C(F)(F)F)cc(C(F)(F)F)c4)[C@H](Cc4ccccc4)C3)CC2)C1 (stereo partly drawn) [Compound 118] |  |  | 
34 | 200 |  | 7940 | O=C(c1cc(C(F)(F)F)cc(C(F)(F)F)c1)N1CC[C@@H](N2CCCN(C3CCCN(S(=O)(=O)c4cccs4)C3)CC2)C[C@H]1Cc1ccccc1 (stereo partly drawn) [Compound 120] |  |  | 
